# Where “and” joins values, the source holds several entries; their conditions need not be identical. Equal entries are not always repeated. Where two headings read alike, the source gives them in different places.
# Tests used:
# [1] = biological target: acetylcholinesterase (AChE) from termite whole bodies; assay: Acetylcholinesterase (AChE) inhibition, modified Ellman's method; type: biochemical, termites; conditions: crude enzyme from termite whole bodies; for IC50: pH 8.0, 25 °C, read-out: IC50 against AChE
# Description: Whole bodies of termites (20 mg) were homogenized in 1 mL of 0.1 M phosphate buffer (pH 8.0), and the homogenate was centrifuged at 12,000 rpm for 20 min. The supernatant was used as the enzyme source. All procedural steps for preparing the crude enzyme were performed at 4 °C [26]. The AChE activity was measured using the modified Ellman’s method. Twenty-five microliters of sample was transferred into each well of a 96-well microplate containing 125 μL 0.1 M phosphate buffer (pH 8.0), and 30 μL of the enzyme solution was added to each well. The mixture was incubated for 10 min at 25 °C, after which 50 μL of 5,5′-dithiobis-(2-nitrobenzoic acid) (final concentration 0.4 mM) and 25 μL of acetylthiocholine iodide (final concentration 1 mM) were added. The control was treated by adding 25 μL water. Enzyme activity was measured for 20 min at 412 nm. The AChE inhibition assay was performed using four replicates of each treatment and was repeated two times. The inhibition rate of AChE activity was calculated as a percentage as follows: Inhibition (%) = (Ao − AE)/Ao × 100(1) where Ao is the absorbance of the control, and AE is the absorbance of the tested sample.
# [2] = tested on: Caenorhabditis elegans; assay: Nematicidal activity assay, 96-well microplate method; type: in vivo
# Description: The nematicidal activity assay was conducted according to previously described procedures with minor modifications. The nematode Caenorhabditis elegans was cultivated on nematode growth medium (NGM) [3 g NaCl, 15 g agar, 2.5 g polypeptone, 136.1 g KH2OP4, 17.9 g KOH, 1 mL 1 M MgSO4, 1 mL 1 M CaCl2, 1 mL cholesterol (5 mg/mL), and 500 μL ampicillin (100 μg/mL)] plate covered with Escherichia coli strain OP50. The ampicillin-resistant OP50 was used as a feed source to prevent cross-contamination of the nematode culture. The NGM plates contained high densities of worms after 4 days incubation at 20 °C. For preparation of synchronous worm culture, worms were rinsed from the agar plate with S-basal buffer (5.85 g NaCl, 1 g K2HPO4, 6 g KH2PO4, and 1 mL cholesterol [5 mg/mL ethanol]/L), washed twice with S-basal buffer, and added to household bleach/10 N NaOH solution. The supernatant was shaken for 10–15 min, washed three times by centrifugation for 1 min at 3000 rpm, and then resuspended in S-basal buffer. One hundred microliters of worm/OP50 (1.2 × 10^9 bacteria/mL) solution was transferred into each well of a 96-well plate, and 20 μL sample stock solution was added to give final concentrations 25, 50, 100, 250, and 500 μM. The plate was shaken thoroughly for 2–3 min and incubated at 20 °C. Water was used as a negative control. The experiment was performed using four replicates of each treatment and was repeated two times. Dead and active nematodes were recorded after 48 h treatment. Nematode mortality rate was calculated as a percentage in comparison with the control group.
# [3] = tested on: termites; assay: No-choice contact assay against termites; type: in vivo; conditions: no-choice contact method, seven days treatment
# Description: The no-choice bioassay method as described by Tawata et al. was used to evaluate insecticidal activity. […] Filter paper treated with ethanol and acetone was used as the control. After removing the solvent from treated filter paper by air drying at ambient temperature for 24 h, 20 termites were placed onto each paper. The dishes were covered and placed in incubator at ±23 °C. A few drops of distilled water were supplied daily to the bottom edge of each petri dish to maintain moisture during the experiment. The experiment was performed using four replicates of each treatment and was repeated two times. Mortality was evaluated after seven days treatment. […] Insect mortality rate was calculated as a percentage in comparison with the control group. Rotenone and fenitrothion were used as positive controls.
# [4] = tested on: termites; assay: Topical assay against termites (acute toxicity); type: in vivo; conditions: for LD50 against termites by topical application: worker termites, mortality after 48 h, mean ± SE of four replications; for Insecticidal activity relative to mimosine: higher than mimosine, from Table 1 LD50
# Description: An acute toxicity bioassay was performed by topical application to worker termites. A series of seven different doses (0.25, 0.5, 1.5, 2.5, 7.5, 12.5, and 25 μg/termite) was prepared in ethanol solution for each tested sample. Aliquots (0.5 μL) of diluted samples were applied topically to the abdomens of worker termites. Controls were treated with 0.5 μL ethanol only. Termites were transferred into petri dishes (4.2-cm diameter) lined with filter paper and kept in an incubator at 23–25 °C. A few drops of distilled water were supplied daily to the bottom edge of each dish to maintain moisture during the experiment. Four replicates of 20 termites each were used per treatment. Fenitrothion and rotenone were used as positive controls. Mortality of insects was evaluated after 48 h treatment. […] LD50 values were calculated by probit analysis using Graphpad Prism 6.01 (GraphPad, La Jolla, CA, USA).
# [5] = read-out: Nematicidal activity IC50, C. elegans, 48 h treatment, 20 °C
# [6] = Caenorhabditis elegans, C. elegans, 48 h treatment, 20 °C, read-out: Nematicidal activity IC50
smiles,measurement,setting,value
"COP1(=S)N[C@@H](Cn2ccc(=O)c(O)c2)CO1 (stereo partly drawn) [Compound 1a, 3-Hydroxy-1-(((4S)-2-methoxy-2-sulfido-1,3,2-oxazaphospholidin-4-yl)methyl)pyridin-4(1H)-one]",IC50,[1],95.9 µM
same,IC50,[2]; [5],31.8 µM
same,Mortality (%),[3]; 50 μg/mL,52%–62% and 62.5 ± 1.8 a %
same,Mortality (%),[3]; 100 μg/mL,71%–88% and 88.8 ± 0.9 a %
same,Mortality (%),[3]; 250 μg/mL,90.6 ± 1.3 a %
same,LD50 against termites by topical application,[4],0.5 μg/insect and 0.5 ± 0.1 fg μg/insect
"CCOP1(=S)N[C@@H](Cn2ccc(=O)c(O)c2)CO1 (stereo partly drawn) [Compound 1b, 1-(((4S)-2-Ethoxy-2-sulfido-1,3,2-oxazaphospholidin-4-yl)methyl)-3-hydroxypyridin-4(1H)-one]",IC50,[1],104 µM
same,IC50,[2]; [5],50.2 µM
same,Mortality (%),[3]; 50 μg/mL,52%–62% and 52.5 ± 3.5 ab %
same,Mortality (%),[3]; 100 μg/mL,71%–88% and 71.9 ± 1.3 b %
same,Mortality (%),[3]; 250 μg/mL,84.4 ± 2.2 ab %
same,LD50 against termites by topical application,[4],0.7 μg/insect and 0.7 ± 0.1 ef μg/insect
"CCCOP1(=S)N[C@@H](Cn2ccc(=O)c(O)c2)CO1 (stereo partly drawn) [Compound 1c, 3-Hydroxy-1-(((4S)-2-propoxy-2-sulfido-1,3,2-oxazaphospholidin-4-yl)methyl)pyridin-4(1H)-one]",IC50,"[2]; Caenorhabditis elegans, 48 h, read-out: Nematicidal activity IC50, C. elegans, 48 h treatment, 20 °C",116 µM
same,Mortality (%),[3]; 50 μg/mL,45.6 ± 0.4 bc %
same,Mortality (%),[3]; 100 μg/mL,59.4 ± 1.3 cd %
same,Mortality (%),[3]; 250 μg/mL,77.5 ± 0.9 b %
same,LD50 against termites by topical application,[4],0.8 ± 0.1 ef μg/insect
"COP1(=S)N[C@@H](Cn2ccc(=O)c(O)c2)CO1 (stereo partly drawn) [Compound 2a, 3-Hydroxy-1-(((4S)-2-methoxy-2-sulfido-1,3,2-oxazaphospholidin-4-yl)methyl)pyridin-4(1H)-one]",IC50,[2]; [5],252 µM
same,Mortality (%),[3]; 50 μg/mL,48.8 ± 2.5 bc %
same,Mortality (%),[3]; 100 μg/mL,70.6 ± 0.6 b %
same,Mortality (%),[3]; 250 μg/mL,82.5 ± 1.3 ab %
same,LD50 against termites by topical application,[4],1.2 ± 0.2 de μg/insect
"CCOP1(=S)N[C@@H](Cn2ccc(=O)c(O)c2)CO1 (stereo partly drawn) [Compound 2b, 1-(((4S)-2-ethoxy-2-sulfido-1,3,2-oxazaphospholidin-4-yl)methyl)-3-hydroxypyridin-4(1H)-one]",IC50,[2]; [5],187 µM
same,Mortality (%),[3]; 50 μg/mL,42.5 ± 2.5 bcd %
same,Mortality (%),[3]; 100 μg/mL,52.5 ± 2.5 de %
same,Mortality (%),[3]; 250 μg/mL,63.8 ± 0.0 c %
same,LD50 against termites by topical application,[4],2.1 ± 0.4 c μg/insect
"CCCOP1(=S)N[C@@H](Cn2ccc(=O)c(O)c2)CO1 (stereo partly drawn) [Compound 2c, 3-Hydroxy-1-(((4S)-2-propoxy-2-sulfido-1,3,2-oxazaphospholidin-4-yl)methyl)pyridin-4(1H)-one]",IC50,[2]; [5],218 µM
same,Mortality (%),[3]; 50 μg/mL,29.4 ± 1.9 e %
same,Mortality (%),[3]; 100 μg/mL,44.4 ± 1.9 e %
same,Mortality (%),[3]; 250 μg/mL,52.5 ± 3.8 d %
same,LD50 against termites by topical application,[4],3.1 ± 0.5 b μg/insect
"[2H]C([2H])(O)[C@@H](N)Cn1ccc(=O)c(O)c1 [D-mimosinol, deuterated mimosinol]",IC50,[2]; [6],390 µM
same,Mortality (%),[3]; 50 μg/mL,33.1 ± 1.9 de %
same,Mortality (%),[3]; 100 μg/mL,53.8 ± 3.8 de %
same,Mortality (%),[3]; 250 μg/mL,60.6 ± 0.6 cd %
same,Insecticidal activity relative to mimosine,[4],> 30 times
same,LD50 against termites by topical application,[4],1.8 ± 0.3 d μg/insect
"COP(=S)(OC)Oc1ccc([N+](=O)[O-])c(C)c1 [Fenitrothion, reference compound]",IC50,[1],182 µM
same,Mortality (%),[3]; 5 μg/mL,26.9 ± 1.3%
same,Mortality (%),[3]; 10 μg/mL,69.4 ± 0.6%
same,Mortality (%),[3]; 15 μg/mL,83.8 ± 1.9%
same,LD50 against termites by topical application,[4],0.025 ± 0.0 g μg/insect
"NC(Cn1ccc(=O)c(O)c1)C(=O)O (stereo not drawn) [Mimosine, β-[N-(3-hydroxy-4-oxypyridyl)]-α-aminopropionic acid]",AChE inhibitory activity (in words),[1],not active
same,IC50,[1],1530 µM
same,IC50,[2]; [6],16.8 µM
same,Mortality (%),[3]; 50 μg/mL,2.5 ± 1.1 f %
same,Mortality (%),[3]; 100 μg/mL,7.5 ± 1.0 f %
same,Mortality (%),[3]; 250 μg/mL,9.1 ± 2.0 e %
same,LD50 against termites by topical application,[4],54.1 ± 5.9 a μg/insect
"N[C@H](CO)Cn1ccc(=O)c(O)c1 [Mimosinol, mimosinol]",IC50,[2]; [6],376 µM
same,Mortality (%),[3]; 50 μg/mL,38.1 ± 1.3 cde %
same,Mortality (%),[3]; 100 μg/mL,52.5 ± 2.7 de %
same,Mortality (%),[3]; 250 μg/mL,68.5 ± 0.6 c %
same,Insecticidal activity relative to mimosine,[4],> 30 times
same,LD50 against termites by topical application,[4],1.2 ± 0.2 de μg/insect
"C=C(C)[C@H]1Cc2c(ccc3c2O[C@@H]2COc4cc(OC)c(OC)cc4[C@@H]2C3=O)O1 [Rotenone, rotenone, reference compound]",Mortality (%),[3]; 50 μg/mL,48.8 ± 0.9 bc %
same,Mortality (%),[3]; 100 μg/mL,68.1 ± 1.3 bc %
same,Mortality (%),[3]; 250 μg/mL,80.0 ± 0.9 b %
same,LD50 against termites by topical application,[4],0.8 ± 0.2 ef μg/insect
O=c1cc(CO)occ1O [kojic acid],AChE inhibitory activity (in words),[1],not active
same,IC50,[1],5480 µM
same,IC50,[2]; [6],328 µM

# Reference: paper PMC6332359, “Insecticidal and Nematicidal Activities of Novel Mimosine Derivatives” (Molecules, 2015)
